# Data taken from article PMC3465347, “Regulation of NF-κB Activation through a Novel PI-3K-Independent and PKA/Akt-Dependent Pathway in Human Umbilical Vein Endothelial Cells” (PLoS ONE, 2012).
# Tests used:
# [1] = tested on: adhesion of neutrophils to the endothelium monolayer; design: method as in PMID 21315792; conditions: dose-dependent; cited from earlier work
# [2] = tested on: TNF-α-induced ICAM-1 expression on human endothelial cells; design: method as in PMID 21315792; conditions: dose-dependent; cited from earlier work
# [3] = tested on: TNF-α-induced E-selectin expression on human endothelial cells; design: method as in PMID 21315792; conditions: dose-dependent; cited from earlier work
# [4] = tested on: TNF-α-induced VCAM-1 expression on human endothelial cells; design: method as in PMID 21315792; conditions: dose-dependent; cited from earlier work
# PKA = target: T1, PKA (Homo sapiens, UniProt P17612); assay: PKA activity assay; format: cell-based
# T1 construct: PKA was immunoprecipitated from the total cell lysates of unstimulated and TNF-α-stimulated endothelial cells; endogenous in cells; host or cells: HUVEC (treated with MPTAG, SQ 22536, H-89 ± TNF-α), anti-PKAα immunoprecipitate
# Text: PKA was immunoprecipitated from the total cell lysates of unstimulated and TNF-α-stimulated endothelial cells in presence and absence of treatment with agents indicated in Figure 7 using anti-PKAα (W-18) antibody. The immunoprecipates were subjected to kinase activity assay using a Bisamide Rhodamine 110 peptide substrate as per the instructions of the Profluor PKA assay kit (Promega, USA).
# [5] = tested on: NF-κB DNA-binding activity in HUVECs; assay: NF-κB activation assay (EMSA) in nuclear extracts; format: cell-based, human; conditions: wortmannin 100 µM or H-89 20 µM, 30 mins, then TNF-α 10 ng/ml
# Protocol: The endothelial cells were subjected to the indicated treatments followed by induction with TNF-α for indicated time points or 30 mins. The cells were then washed with PBS and dislodged using a cell scraper. The cytoplasmic and nuclear extracts were prepared as described previously, [46].
# NF-κB activation in the nuclear extracts of human endothelial cells was assessed by electrophoretic mobility shift assay (EMSA) as described previously, [46]. For supershift experiment, nuclear extracts prepared from unstimulated and TNF-α-stimulated cells were incubated with antibodies against the p50 or p65 subunit of NF-κB or -α-tubulin for 15 mins at 37°C before the complex was analyzed by EMSA. Addition of equal amount of radioactive-labelled probe to all the samples was indicated by the similar intensity of the unincorporated probe observed towards the end of the gel.
# [6] = tested on: Akt phosphorylation in HUVECs; assay: Akt phosphorylation western blot; format: cell-based, human; conditions: wortmannin 100 µM or H-89 20 µM, 30 mins, then TNF-α 10 ng/ml 30 mins
# Protocol: Nuclear and cytoplasmic extracts were fractionated on SDS-PAGE with equal amount of proteins per well and transferred onto PVDF membranes and those membranes were incubated with appropriate primary antibodies and treated with HRP conjugated secondary antibodies followed by detection with DAB-H2O2 system. β-tubulin, α-actin and Lamin B1 were used as loading controls. Antibodies against NF-κBp65, phosphoNF-κBp65, IκBα, phosphoIκBα, IKK-β, Akt, phosphoAkt (Ser473) and phosphoAkt (Thr308) were used.
# PI-3K = PI-3K activity assay; format: cell-based, human; conditions: pretreatment, HUVECs
# Text: The catalytic domain of PI-3K was immunoprecipitated from the stimulated and unstimulated endothelial in presence and absence of various compound treatment using an anti-p85α (N-18) antibody. The immunoprecipated proteins were subjected to kinase activity assay using a PI substrate, diC8 followed by detection of the PI(3)P as per the instructions of the Class III PI-3kinase kit (Echelon, USA).
structure (smiles),measurement,setting,value
"Cc1occc(=O)c1O[C@@H]1O[C@H](CO)[C@@H](O)[C@H](O)[C@H]1O [MPG, 2-methyl-pyran-4-one-3-O-β-D-glucopyranoside]",inhibition of adhesion of neutrophils to the endothelium monolayer,[1],inhibited
same,inhibition of TNF-α-induced ICAM-1 expression,[2],inhibited
same,inhibition of TNF-α-induced E-selectin expression,[3],inhibited
same,inhibition of TNF-α-induced VCAM-1 expression,[4],inhibited
"Nc1ncnc2c1ncn2C1CCCO1 (centres unmarked) [SQ 22536, reference compound]",PKA activity in unstimulated HUVECs,PKA; SQ 22536 treatment alone,moderately suppressed
"O=S(=O)(NCCNC/C=C/c1ccc(Br)cc1)c1cccc2cnccc12 [H-89, reference compound]",PKA activity,"PKA; H-89 treatment, even in presence of MPTAG",inhibited
same,"TNF-α-induced NF-κB activation (EMSA), kinase inhibitor alone",[5],enhanced
same,"TNF-α-induced Akt phosphorylation (Thr308), kinase inhibitor alone",[6],enhanced
"COC[C@H]1OC(=O)c2coc3c2[C@@]1(C)C1=C(C3=O)[C@@H]2CCC(=O)[C@@]2(C)C[C@H]1OC(C)=O [wortmannin, Wortmannin, reference compound]","TNF-α-induced NF-κB activation (EMSA), kinase inhibitor alone",[5],inhibited
same,TNF-α-induced PI-3K activity,PI-3K,abolished
same,"TNF-α-induced Akt phosphorylation (Thr308), kinase inhibitor alone",[6],inhibited
